Source: ChEMBL document CHEMBL1201862, “PubChem BioAssay data set” (2004)
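48-hour exposure; five concentrations; linearly interpolated endpoints. GI50 = concentration required for 50% inhibition of growth.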 Active and inactive are the calls of the source. No stated cut-off is given here; in the data, active = GI50 up to about 1.1 µM and inactive = higher.

Experiments:
Experiment in all cases: NCI tumour cell line growth inhibition, 48 h
IGROV-1 = system: IGROV-1
RPMI-8226 = system: RPMI-8226
U-251 = system: U-251
HT-29 = system: HT-29
OVCAR-5 = system: OVCAR-5
SNB-19 = system: SNB-19
KM12 = system: KM12
SK-MEL-5 = system: SK-MEL-5
786-0 = system: 786-0
NCI-H226 = system: NCI-H226
OVCAR-8 = system: OVCAR-8
SK-OV-3 = system: SK-OV-3
BT-549 = system: BT-549
SK-MEL-2 = system: SK-MEL-2
HOP-62 = system: HOP-62
SF-295 = system: SF-295
HCT-116 = system: HCT-116
NCI-H522 = system: NCI-H522

Measured: GI50

CC1C2=C(CCCC2=O)N(c2ccc(Cl)cc2)C2=C1C(=O)CCC2
inactive: IGROV-1 > 100 µM | RPMI-8226 67 µM | U-251 54.7 µM | HT-29 45.6 µM | OVCAR-5 > 100 µM | SNB-19 > 100 µM | KM12 > 100 µM | SK-MEL-5 40.6 µM | 786-0 > 100 µM | NCI-H226 > 100 µM | OVCAR-8 > 100 µM | SK-OV-3 > 100 µM | BT-549 73.6 µM

COc1cc(C=O)cc(/C=N/c2ccccn2)c1O
inactive: SK-MEL-2 2.57 µM | RPMI-8226 4.85 µM | U-251 13 µM | HT-29 11.5 µM | HOP-62 16 µM | OVCAR-5 15.8 µM | SF-295 5.47 µM | SNB-19 17.4 µM | HCT-116 35.4 µM | KM12 24.5 µM | SK-MEL-5 2.39 µM | 786-0 7.36 µM | NCI-H226 4.84 µM | OVCAR-8 2.78 µM | SK-OV-3 4.98 µM

CC(C)(C)N1NC1C1NN1C(C)(C)C (configuration not stated)
inactive: IGROV-1 > 100 µM | SK-MEL-2 > 100 µM | RPMI-8226 > 100 µM | U-251 > 100 µM | HT-29 > 100 µM | HOP-62 > 100 µM | OVCAR-5 > 100 µM | SF-295 > 100 µM | SNB-19 > 100 µM | HCT-116 > 100 µM | KM12 > 100 µM | NCI-H522 > 100 µM | SK-MEL-5 > 100 µM | 786-0 > 100 µM | NCI-H226 > 100 µM | OVCAR-8 > 100 µM | SK-OV-3 > 100 µM

Nc1nc2c(=O)c3ccccc3sc2s1
inactive: IGROV-1 43.2 µM | SK-MEL-2 > 100 µM | RPMI-8226 33.6 µM | U-251 45.1 µM | HT-29 54.8 µM | HOP-62 29.2 µM | OVCAR-5 80.7 µM | SF-295 44.1 µM | SNB-19 41.9 µM | HCT-116 57.8 µM | KM12 > 100 µM | SK-MEL-5 35.5 µM | 786-0 34.7 µM | NCI-H226 21.7 µM | OVCAR-8 22.6 µM | BT-549 41.4 µM

O=c1c2cc(Br)cc(Br)c2[nH]c(=S)n1-c1ccc(/N=N/c2ccc(O)c3cccnc23)cc1
inactive: IGROV-1 11.2 µM | SK-MEL-2 > 100 µM | RPMI-8226 33.9 µM | U-251 19.7 µM | HT-29 39.6 µM | HOP-62 33.3 µM | OVCAR-5 74.5 µM | SF-295 64.9 µM | SNB-19 19.7 µM | HCT-116 26.2 µM | KM12 > 100 µM | NCI-H522 18.7 µM | SK-MEL-5 11.9 µM | 786-0 25.7 µM | NCI-H226 > 100 µM | OVCAR-8 23.3 µM | SK-OV-3 > 100 µM

COc1ccc(/N=N/c2c(C)c(C#N)c(=S)n(C3OC(CO)C(O)C(O)C3O)c2C)cc1 (configuration not stated)
inactive: IGROV-1 54.1 µM | SK-MEL-2 71.3 µM | RPMI-8226 39.2 µM | U-251 51.5 µM | HT-29 37.9 µM | HOP-62 42.3 µM | OVCAR-5 > 100 µM | SF-295 52.1 µM | SNB-19 38.3 µM | HCT-116 31.6 µM | KM12 73.1 µM | SK-MEL-5 14.5 µM | 786-0 44.2 µM | SK-OV-3 > 100 µM | BT-549 32.7 µM

CCOC(=O)C(C(=O)OCC)=C1N[C@H](C(=O)OCC)CS1
inactive: IGROV-1 > 100 µM | SK-MEL-2 > 100 µM | RPMI-8226 > 100 µM | U-251 > 100 µM | HT-29 > 100 µM | HOP-62 > 100 µM | OVCAR-5 > 100 µM | SF-295 > 100 µM | SNB-19 > 100 µM | HCT-116 > 100 µM | KM12 > 100 µM | NCI-H522 > 100 µM | SK-MEL-5 > 100 µM | 786-0 > 100 µM | NCI-H226 80.5 µM | OVCAR-8 > 100 µM

CSC1=N/C(=C\c2ccco2)C(=O)N1CN1CCCCC1
inactive: IGROV-1 89.9 µM | SK-MEL-2 > 100 µM | RPMI-8226 35.6 µM | U-251 > 100 µM | HT-29 51.6 µM | HOP-62 > 100 µM | OVCAR-5 > 100 µM | SF-295 > 100 µM | SNB-19 87.3 µM | HCT-116 50.4 µM | KM12 > 100 µM | NCI-H522 > 100 µM | SK-MEL-5 55.1 µM | 786-0 54.6 µM | NCI-H226 > 100 µM | OVCAR-8 75.9 µM | SK-OV-3 > 100 µM

CCOC(OCC)N1C(=O)C2(C(OCC)OCC)CC3C(OC(=O)N3N)c3cccc1c32 (configuration not stated)
inactive: IGROV-1 > 100 µM | RPMI-8226 > 100 µM | U-251 > 100 µM | HT-29 > 100 µM | HOP-62 > 100 µM | OVCAR-5 > 100 µM | SF-295 > 100 µM | SNB-19 > 100 µM | HCT-116 > 100 µM | KM12 > 100 µM | SK-MEL-5 > 100 µM | 786-0 > 100 µM | NCI-H226 > 100 µM | OVCAR-8 > 100 µM | SK-OV-3 > 100 µM | BT-549 > 100 µM
